According to patent US12350308B2, “Phosphorylcholine conjugates and uses thereof” (TPCERA LTD., priority 2013, dated 2025):
Where no end group is shown, it is not given here.

Key:
[1] = tested on: DBA/1 CIA mice; test: Arthritis score in mice with established CIA (treatment from day 16); format: in vivo; conditions: for mean arthritis score: day 35, s.c. 3 times a week, PBS 13.8±0.45; for average arthritis score: time 0 (treatment initiation, day 16 after disease induction), baseline
From the text: Rheumatoid Arthritis is a progressive joint deformation disease caused by severe inflammation. CIA mice were subjected to subcutaneous injections of TD-PC, tuftsin derivative (SEQ ID NO: 25), PC, a mix of TD and PC, or PBS, 3 times a week. […] Treatment started as day 16 after disease induction when disease symptoms were already notable. […] The significant reduction in arthritis score was illustrious from day 7 after treatment administration and lasted until day 35 (the day mice were sacrificed).

[2] = tested on: splenocytes of NZBW/F1 female mice; test: Cytokine secretion in-vitro by splenocytes of lupus mice treated with TD-PC; format: in vivo; conditions: vs PBS; for IL-17 secretion from splenocytes: in vitro; for IL-10 secretion by splenocytes / TGFβ production by splenocytes / reduction of splenocyte secretion of IFNγ: in-vitro
Protocol: NZBW/F1 female mice having lupus were treated with TD-PC (SEQ ID NO: 25 conjugated to PC) or the corresponding control treatments. Mice were sacrificed at week 30, and their splenocytes were studied in-vitro for the expression of pro-inflammatory cytokines (IFNγ, IL-17) and anti-inflammatory (TGFβ, IL-10) cytokines using RT-PCR. […] In contrast, TD-PC increased the mRNA expression of the anti-inflammatory cytokine TGFβ in the (p<0.001) compared to the mRNA expressed by splenocytes derived from PBS-treated mice (FIG. 24A).
However, a prominent increase in anti-inflammatory cytokines (TGFβ, IL-10) secretion in-vitro by splenocytes derived from TD-PC treated mice is illustrated in FIG. 24B. […] IFNγ secretion upon tuftsin derivative (SEQ ID NO: 25) or PC treatments was reduced by 2.5 and 1.5 times respectively (p<0.03 and p<0.04, respectively).

[3] = Dagan S et al., 1987; cited from earlier work
[4] = tested on: Tregs CD4+CD25+FOXP3+; test: T regulatory cell profiling by FACS in splenocytes of lupus mice (PC-tuftsin study); format: in vivo; conditions: PBS 4±0.6 percent
Protocol: Mice, from age of 14 weeks, received subcutaneously PC-tuftsin at the concentration of 50 μg/0.1 ml per mouse (treatment; n=10) or PBS (control; n=10), three times a week. In the cytokines studies, the relative mRNA expression levels of pro-inflammatory cytokine IFNγ and anti-inflammatory cytokine TGFβ were analyzed by real time RT-PCR using LightCycler (Roche). Total RNA was isolated from splenocytes and was reverse-transcribed into cDNA by using Moloney Murine Leukemia Virus Reverse Transcriptase (Promega). The resulting cDNA was subjected to real-time RT-PCR in the presence of specific primers, according to the manufacturer's instructions (Table 2). The relative expression levels of IFNγ and TGFβ were normalized to β-actin levels.
Finally, a T regulatory cell (Tregs) profiling assay was performed in isolated splenocytes incubated with the following antibodies: anti-CD4^+FITC, anti-CD25^+APC and anti-FOXP3^+PE (eBioscience) and analyzed by FACS. Forward and side scatter gates adjusted to include all cells and to exclude debris (Becton Dickinson). Cells were gated on CD4+ cells, and for intracellular staining, the cells were incubated with a fixation solution, washed and resuspended in permeabilization solution (Serotec). Isotype control was used as reference.

[5] = tested on: IL-10+CD25+CD1d+ Breg cells; test: Breg expansion in splenocytes of mice with established CIA (FACS); format: in vivo; conditions: isolated splenocytes; PBS 0.4%
Protocol: The mean percentage of Breg cells in isolated splenocytes following treatment with TD-PC, PBS, TD (SEQ ID NO: 25), PC, TD+PC and None was measured within IL-10+CD25+CD1d+ subset. […] Representative data of IL-10+CD25+CD1d+ levels in splenocytes derived from TD-PC, PBS, TD (SEQ ID NO: 25), PC and TD+PC treated mice gating on IL-10+ B cells, are presented in FIG. 34A.

[6] = tested on: CD4+CD25+FOXP3+ Tregs; test: Treg expansion in spleen cells of lupus mice treated with TD-PC (FACS); format: in vivo; conditions: gating on CD4+ T cells; PBS 4%
From the text: The percentage of CD4+CD25+FOXP3+ Tregs phenotype subset in spleen cells following treatment with TD-PC, tuftsin derivative (SEQ ID NO: 25), PC or PBS, is elucidated in FIGS. 25A-25B.

[7] = tested on: NZBxW/F1 lupus mice; test: Circulating anti-dsDNA antibodies in lupus mice treated with TD-PC (ELISA); format: in vivo; conditions: sera at 30 weeks, dilution 1:800; between groups incl. PBS
Protocol: Titers of circulating anti-dsDNA antibodies in the sera of control and treated mice were monitored during the development of lupus, and their levels were measured every 3 weeks. […] FIG. 23 presents the anti dsDNA antibodies titers in the sera at the age 30 weeks at a dilution of 1:800.

[8] = tested on: NZBxW/F1 lupus mice; test: Survival of lupus mice treated with TD-PC (Kaplan-Meier); format: in vivo; conditions: already at week 24
Protocol: A main complication of lupus nephritis is a short survival time due to severe kidney failure. Therefore, the survival time of mice treated either with TD-PC or with PC, tuftsin derivative (SEQ ID NO: 25) or PBS (control) was analyzed.

[9] = tested on: CD4+CD25+FOXP3+ Treg cells; test: Treg expansion in splenocytes of mice with established CIA (FACS); format: in vivo; conditions: isolated splenocytes; PBS 1.4%
From the text: The frequency of CD4+CD25+FOXP3+ Treg cells subset in isolated splenocytes from mice treated with TPC, PBS, TD (SEQ ID NO: 25), PC, TD+PC or untreated is elucidated in FIGS. 33A and 33B. […] Representative data of the CD4+CD25+FOXP3+ levels in splenocytes derived from TD-PC, PBS, TD (SEQ ID NO: 25), PC and TD+PC treated mice and the untreated group, gating on CD4+ T cells are presented in FIG. 33B.

[10] = tested on: splenocytes derived from CIA mice; test: Cytokine secretion in-vitro by splenocytes of mice with established CIA; format: in vivo; conditions: splenocyte culture fluids; for mean IL-10 level: PBS 298; for mean IL-6 level: PBS 840; for mean IL-1β level: PBS 883; for mean TNF-α level: PBS 1073; for mean IL-17 level: PBS 2170
Protocol: Secretion, in-vitro, of pro-inflammatory and anti-inflammatory cytokines by splenocytes derived from CIA mice treated with TD-PC, PBS, TD, PC, TD+PC or untreated mice was evaluated (FIGS. 32A-32D). The following cytokines secretions were examined: pro-inflammatory IL-1β (FIG. 32A), IL-17 (FIG. 32B), IL-6 (FIG. 32C), TNF-α (FIG. 32D) and anti-inflammatory IL-10 (FIG. 32E).

[11] = tested on: female NZBxW/F1 lupus prone mice; test: Proteinuria onset and immune complex deposits in lupus prone mice treated with TD-PC; format: in vivo; conditions: s.c., prophylactic from week 14
From the text: To examine the potential protective effect of TD-PC (SEQ ID NO: 25 conjugated to PC), female NZBxW/F1 lupus prone mice received subcutaneous injections (s.c) of the TD-PC conjugate, phosphorylcholine (PC), tuftsin derivative (SEQ ID NO: 25) or PBS (control) via a prophylactic protocol starting at week 14, before the clinical onset of lupus (n ¼ 15 per group).

Compound	mean arthritis score [1]	average arthritis score [1]	IL-17 secretion from splenocytes [2]	IL-10 secretion by splenocytes [2]	TGFβ production by splenocytes [2]	reduction of splenocyte secretion of IFNγ [2]	effect on disease progression [3]	enhancement in Tregs CD4+CD25+FOXP3+ expression level [4]	mean percentage of IL-10+CD25+CD1d+ Breg cells [5]	CD4+CD25+FOXP3+ Tregs in spleen cells [6]	titers of circulating anti-dsDNA antibodies [7]	percentage of death number vs PBS injected mice [8]	mean percentage of CD4+CD25+FOXP3+ Treg cells [9]	mean IL-10 level [10]	mean IL-6 level [10]	mean IL-1β level [10]	mean TNF-α level [10]	mean IL-17 level [10]	immune complex (IC) deposits in the mesangium / nephritis class [11]
C[N+](C)(C)CCOP(=O)(O)O [PC, phosphorylcholine]	14±0	3.4±1.1	to a lower extent	did not have any effect	minimal effect	1.5 times	inhibitory effect	did not cause any significant elevation	0.44%	3%	No statistically significant change	significant difference	0.81%	300 pg/mL	795 pg/mL	860 pg/mL	1048 pg/mL	2179 pg/mL	did not diminish the development of strong mesangial damage
TKPRGY [TD]	13.8±0.45	4.6±1.5	Less significant inhibition	increased IL-10 secretion by splenocytes in-vitro but less significant	moderately enhanced	2.5 times			0,5%	8%	No statistically significant change	significant difference	0.52%	304 pg/mL	778 pg/mL	896 pg/mL	1079 pg/mL	2217 pg/mL	moderate but not significant effect
threonine-lysine-proline-arginine [tuftsin]								did not cause any significant elevation											
